In PMC12881681 (Molecular Pharmacology, 2025):
“And” between values parts separate entries of the source, which are not always exact repeats. Identical values can stand only once. Like-named read-outs stand apart in the source and are kept apart here.

How the values were obtained:
[1] = biological target: T1, human liver cytosolic AOX1 (Homo sapiens, UniProt Q06278); test: Enzyme inactivation of human liver cytosolic AOX1-mediated carbazeran 4-oxidation; details: for kinact: human liver cytosol 100 μg, carbazeran 15 μM, 37 °C; for Experimental Log KI: log of KI
T1 sequence (Q06278 1-1338): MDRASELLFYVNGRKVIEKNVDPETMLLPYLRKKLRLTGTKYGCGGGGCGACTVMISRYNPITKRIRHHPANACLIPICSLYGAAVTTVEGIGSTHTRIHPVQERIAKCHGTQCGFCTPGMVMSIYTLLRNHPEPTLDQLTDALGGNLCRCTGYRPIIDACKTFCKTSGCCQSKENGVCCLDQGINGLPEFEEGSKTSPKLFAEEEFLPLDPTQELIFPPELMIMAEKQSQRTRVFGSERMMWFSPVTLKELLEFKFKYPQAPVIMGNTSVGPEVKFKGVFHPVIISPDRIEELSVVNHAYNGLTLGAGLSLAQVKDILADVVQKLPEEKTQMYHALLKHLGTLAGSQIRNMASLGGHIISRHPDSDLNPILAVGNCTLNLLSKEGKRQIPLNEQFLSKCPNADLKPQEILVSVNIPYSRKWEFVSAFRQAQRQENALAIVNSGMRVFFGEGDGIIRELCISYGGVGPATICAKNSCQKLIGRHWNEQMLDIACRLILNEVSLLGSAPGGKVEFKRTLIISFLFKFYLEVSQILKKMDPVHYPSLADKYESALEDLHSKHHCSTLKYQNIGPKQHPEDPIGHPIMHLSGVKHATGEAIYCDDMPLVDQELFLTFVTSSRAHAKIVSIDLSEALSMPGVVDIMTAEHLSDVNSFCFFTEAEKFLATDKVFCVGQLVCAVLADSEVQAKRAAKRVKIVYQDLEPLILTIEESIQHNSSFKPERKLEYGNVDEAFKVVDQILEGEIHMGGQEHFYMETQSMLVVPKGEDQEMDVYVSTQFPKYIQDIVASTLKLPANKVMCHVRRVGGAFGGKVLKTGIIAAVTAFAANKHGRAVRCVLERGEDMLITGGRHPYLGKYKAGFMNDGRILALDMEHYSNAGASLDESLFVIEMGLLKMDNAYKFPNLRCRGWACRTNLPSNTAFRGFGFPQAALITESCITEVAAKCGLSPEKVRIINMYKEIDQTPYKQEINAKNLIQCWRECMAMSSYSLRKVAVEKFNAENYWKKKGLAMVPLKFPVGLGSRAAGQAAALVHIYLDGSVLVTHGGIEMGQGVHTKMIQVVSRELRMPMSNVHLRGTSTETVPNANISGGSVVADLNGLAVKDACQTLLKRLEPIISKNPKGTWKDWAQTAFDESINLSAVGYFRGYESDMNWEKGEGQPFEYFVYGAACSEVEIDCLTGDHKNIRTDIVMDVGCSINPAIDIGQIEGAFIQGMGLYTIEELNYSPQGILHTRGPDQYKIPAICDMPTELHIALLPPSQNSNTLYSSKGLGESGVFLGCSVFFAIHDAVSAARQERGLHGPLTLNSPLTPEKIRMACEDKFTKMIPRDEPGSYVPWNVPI
Protocol: Carbazeran 4-oxidation and O^6-benzylguanine 8-oxidation were deployed as AOX1-selective catalytic markers.[27] The assay conditions (amount of cytosolic protein, incubation time, and substrate concentration) for carbazeran 4-oxidation catalyzed by human recombinant AOX1 and human/rat/mouse liver cytosols were optimized previously.[7]^,[25]
Enzymatic reaction was initiated by adding human liver cytosol (100 μg). After the specified preincubation duration, an aliquot (10 μL) of the preincubation mixture was transferred to 190 μL of a prewarmed (for 3 minutes at 37 °C) secondary incubation mixture (total volume of 200 μL) containing potassium phosphate buffer and carbazeran (15 μM) or O^6-benzylguanine (150 μM), which yielded a 20-fold dilution of the primary incubation mixture. The secondary incubation mixture was incubated for 5 minutes at 37 °C before the enzymatic reaction was terminated with 200 μL of ice-cold acetonitrile containing carbazeran-d4 (2.5 nM final concentration; internal standard for 4-oxo-carbazeran) or tolbutamide (25 nM final concentration; internal standard for 8-oxo-O^6-benzylguanine). Each sample was immediately mixed by vortex, placed on ice, centrifuged at 16,000g for 15 minutes at 4 °C and stored at –30 °C until ultra-high performance liquid chromatography–tandem mass spectrometry (UPLC-MS/MS) analysis. For enzyme inactivation assays involving rat and mouse liver cytosol and recombinant AOX1 assays, the experimental conditions were similar to those of human liver cytosol, except that the amount of cytosolic protein was 200 μg (rat) and 150 μg (mouse), respectively, and the incubation time of the secondary incubation mixture was 60 minutes. For the recombinant AOX1 enzyme assay, the amount of enzyme was 100 μg, the incubation time of the secondary incubation mixture was 15 minutes, and the total volume of the primary and secondary incubation mixtures was reduced to 100 μL.
Preliminary experiments were performed to optimize the incubation time and concentration of an inactivator to ensure a log-linear decrease in enzyme activity over time and that the kobs versus inactivator concentration plot reaches a plateau for the determination of the kinact value. The observed first-order rate constant for inactivation (kobs), maximal inactivation rate constant (kinact), half-maximal inactivation concentration (KI), and the time required for half of the enzyme molecules to be inactivated (t1/2) were calculated as described in our previous publication.[28]

[2] = biological target: T1, human liver cytosolic AOX1; assay type: biochemical; design: Enzymatic reaction was initiated by adding human liver cytosol (100 μg); tissue Corning, Inc. (Gentest brand) 452115; host or cells: human liver cytosol, pool of 150 donors; details: potassium ferricyanide 2 mM, 0 or 6 min preincubation
Protocol: The residual AOX1 enzyme activity was determined by the carbazeran 4-oxidation assay.
A test chemical at a concentration described above was incubated with human liver cytosol (100 μg protein) at 37 °C for 0 or 6 minutes. […] After 10-minute incubation, an aliquot (50 μL) of the […] (total volume of 200 μL) containing potassium phosphate buffer and carbazeran (15 μM), which yielded a 4-fold dilution of the secondary incubation mixture. The residual AOX1 enzyme activity was determined as described above.

[3] = half-maximal inactivation concentration, human liver cytosol, carbazeran 4-oxidation
[4] = human liver cytosol, carbazeran 4-oxidation
[5] = read-out: KI,u, unbound, KI,u = fu × KI, fu at 10 μM in human liver cytosol
[6] = human liver cytosol, 10 μM (raloxifene 0.02 μM), 30-minute preincubation
[7] = human liver cytosol, inactivator 1.5 μM alone, 6-minute preincubation

Compound	KI, decrease compared with erlotinib ([1]; Table 1 values) [%]	kinact, decrease compared with erlotinib ([1]; Table 1 values) [%]	kinact/KI ratio, decrease compared with erlotinib ([1]; Table 1 values) [%]	t1/2, fold longer compared with erlotinib ([1]; Table 1 values)	Ki [1, 3] [µM]	kinact [1]	Inactivation t1/2 [1, 4]	kinact/KI [1, 4]	Ki [1, 5] [µM]	effect of coincubation or postincubation with potassium ferricyanide on AOX1 inactivation [2]	KI, fold higher compared with erlotinib ([1]; Table 1 values) [fold]	kinact, fold lower compared with erlotinib ([1]; Table 1 values)	kinact/KI ratio, fold lower compared with erlotinib ([1]; Table 1 values) [fold]	decrease in carbazeran 4-oxidation [1, 6] [%]	decrease in carbazeran 4-oxidation ([1]; human liver cytosol, 6 minutes of preincubation (data not shown))	Experimental Log KI ([1]; human liver cytosol)	decrease in carbazeran 4-oxidation [1, 7]	KI (inactivation) ([1]; read-out: KI, half-maximal inactivation concentration, human liver cytosol, carbazeran 4-oxidation) [µM]
C#Cc1cc(Nc2ncnc3cc(OCCOC)c(OCCOC)cc23)ccc1C [4′-Methylerlotinib, 4′-methylerlotinib]	62	88	70	8.5 fold	1.03 ± 0.27	0.14 ± 0.03∗∗∗ min^–1	5.29 ± 1.19∗∗∗ min	0.13 ± 0.02∗∗∗ min^–1μM^–1	0.75 ± 0.2	not increased or decreased	–	–	–	–	–	–	–	–
C#Cc1cccc(Nc2ncnc3cc(OCCOC)c(OCCOC)cc23)c1 [Erlotinib]	–	–	–	–	–	–	0.62 ± 0.09 min	–	–	not increased or decreased	–	–	–	–	–	–	–	–
C#Cc1cccc(Nc2nc(C)nc3cc(OCCOC)c(OCCOC)cc23)c1 [2-Methylerlotinib, 2-methylerlotinib]	–	26	51	1.3 fold	4 ± 0.27	0.84 ± 0.10∗∗ min^–1	0.83 ± 0.11 min	0.21 ± 0.01∗∗∗ min^–1μM^–1	2.04 ± 0.14	not increased or decreased	1.5	–	–	–	–	–	–	–
C=Cc1cccc(Nc2ncnc3cc(OCCOC)c(OCCOC)cc23)c1 [3-Vinylerlotinib, 3-vinylerlotinib]	–	–	–	approximately 3.5 fold	30.6 ± 9.6	0.33 ± 0.07∗∗∗ min^–1	2.14 ± 0.47∗ min	–	23.9 ± 7.53	not increased or decreased	~11	approximately 3.5 fold	~43	84	did not decrease	1.5 ± 0.15∗∗∗ μM	–	–
C#Cc1cccc(Nc2ncnc3cc(OCCOC)c(OCCO)cc23)c1 [O-Desmethylerlotinib, O-desmethylerlotinib]	–	–	–	–	–	1.05 ± 0.06 min^–1	0.66 ± 0.04 min	0.21 ± 0.04∗∗∗ min^–1μM^–1	4.41 ± 1.04	not increased or decreased	–	–	–	99	–	0.71 ± 0.11∗ μM	69% and 79% and 80%	5.23 ± 1.24
C#Cc1cccc(Nc2ncnc3cc(OCCO)c(OCCO)cc23)c1 [O-Didesmethylerlotinib, O-didesmethylerlotinib]	–	–	–	–	1.98 ± 0.2	1.00 ± 0.04 min^–1	0.70 ± 0.03 min	0.50 ± 0.03∗∗ min^–1μM^–1	1.67 ± 0.17	not increased or decreased	–	–	–	99	–	0.30 ± 0.04 μM	90% and 89% and 92%	–
